Patent US20230158071A1, “TUMOR COMBINED IMMUNOTHERAPY” (CRAGE medical Co., Limited, priority 2018, published 2023)

Tested on: 4T1-EGFRvIII orthotopic breast cancer xenografts
Experiment: Mouse 4T1-EGFRvIII orthotopic breast cancer xenografts, olaparib and CAR-T
Assay type: in vivo, BALB/c mice
Conditions: olaparib 50 mg/kg i.p. with CAR-T cells
Description: (1) Establishment of mouse orthotopic breast cancer model and respective treatment in groups:
4T1-EGFRvIII cells in the logarithmic growth phase and growing well are collected, inoculating 5×10^5 target cells at right side position of the third pair of accessory breasts of BABL/C mice (mice with normal immune system), and the inoculating day is recorded as the first day (i.e., Day 1).
On the 10th day after tumor inoculation (i.e. Day 10), mouse T cells are taken and 806-mCD28z-CAR-T cell line is constructed as described in step 1 of this example.
On the 14th day after tumor inoculation (i.e., Day 14), the volume of the tumor reaches about 150 mm^3, and the mice are divided in groups: […]
(2) Detection of tumor volume. The tumor volume changes of mice are observed and measured continuously, and recorded three times a week. […]
(4) Detection of CAR-T copy number in tumor tissues. Tumor tissues of each group of mice are ground to extract DNA, and the sequence of retroviral vector fragment is detected by Taqman probe method to determine the DNA copy number of 806-mCD28z-CAR. […]
(6) Detection of MDSC cells in tumor tissue. The tumor tissues of mice in each group are ground, and after enzyme digestion, the changes in the proportion of MDSC cells are analyzed by flow cytometry. […]

`O=C(c1cc(Cc2n[nH]c(=O)c3ccccc23)ccc1F)N1CCN(C(=O)C2CC2)CC1` [olaparib] was tested. Which “toxicity of combining olaparib with CAR-T cell therapy (from body weights)” value did it give?
Its value is “do not cause significant toxicity”.
